A short description of data set [1]: Drug metabolic stability, S9 fraction with NADPH. In kind it is in vitro ADME.
A short description of the next data set: Permeability by PAMPA. In kind it is in vitro ADME. (In general: PAMPA measures passive passage across an artificial lipid membrane.)
Data set [2] deals with caspase-3 activation in MDA-MB-231 cells. Kind of data set: Caspase-3 activation. The settings on record: MDA-MB-231, 24 hours.
The test system of data set [3] is MDA-MB-231 breast cancer cell lines. The settings on record: cited from earlier work.
The next data set relates to MDA-MB-231 cells. Kind of data set: ATPLite cell viability, compound 3 and TRAIL alone or combined. To be noted: low concentrations up to 110 ng/mL, 20 hours. In kind it is cell-based, human. Background: In ATP-based viability assays light output follows the ATP content of the culture.

Like-named read-outs stand apart in the source and are kept apart here.

Turning to `CN[C@@H](C)C(=O)Nc1ccc(Oc2ccc(OC)cc2)c(C(=O)NCc2csc(-c3cccs3)n2)c1` [Compound 3, (S)-2-(4-methoxyphenoxy)-5-(2-(methylamino)propanamido)-N-((2-(thiophen-2-yl)thiazol-4-yl)methyl)benzamide], in data set [1], the half-life stood at 14.5 min. Moreover, the “Permeability (2 %), class” value in “Permeability by PAMPA” is recorded as “High”. The caspase-3 activation entry in data set [2] is “increases caspase-3 activation”.
As to `COc1cc([C@@H]2c3cc4c(cc3[C@@H](O[C@@H]3O[C@@H]5CO[C@@H](C)O[C@H]5[C@H](O)[C@H]3O)[C@H]3COC(=O)[C@H]23)OCO4)cc(OC)c1O` [etoposide, reference compound], in data set [3] (etoposide 5 µM), the DNA fragmentation entry is “no obvious DNA fragmentation”.

B1: TRAIL: tumor necrosis factor-related apoptosis-inducing ligand (Genentech) (protein, UniProt P50591 1-281, looked up)
Tumor necrosis factor ligand …: MAMMEVQGGPSLGQTCVLIVIFTVLLQSLCVAVTYVYFTNELKQMQDKYSKSGIACFLKEDDSYWDPNDEESMNSPCWQVKWQLRQLVRKMILRTSEETISTVQEKQQNISPLVRERGPQRVAAHITGTRGRSNTLSSPNSKNEKALGRKINSWESSRSGHSFLSNLHLRNGELVIHEKGFYYIYSQTYFRFQEEIKENTKNDKQMVQYIYKYTSYPDPILLMKSARNSCWSKDAEYGLYSIYQGGIFELKENDRIFVSVTNEHLIDMDHEASFFGAFLVG
For B1, the “induction of tumor cell death, TRAIL alone” value in the data set on MDA-MB-231 cells is recorded as “very little effects”. Moreover, in data set [3] (TRAIL 30 ng/ml), the DNA fragmentation result is given as “no obvious DNA fragmentation”.

For orientation: half-life means the time needed for the level to fall by half in the phase considered. Read a low half-life as rapid decline.

The values above are taken from article PMC2692895 (Journal of medicinal chemistry, 2008).
